Key:
[1] = target: T1, cytochrome P450 3A4 (Homo sapiens, UniProt P08684); experiment: Inhibition of cyclosporin A metabolism (3 metabolites M1, M6, M21) by yeast-expressed P450 3A4 microsomes; assay type: biochemical
T1 construct: made in house; host or cells: Saccharomyces cerevisiae strain AH22, vector pAAH5 (p3A4); microsomal fractions
Experimental: Human cytochrome P450 3A4 was expressed using the vector pAAH5 (p3A4) in Saccharomyces cerevisiae strain AH22 (Guengerich et al., 1991). Plasmid DNA was prepared using Promega's Wizard kit and S. cerevisiae strain AH22 (a his4-519 leu2-3,2-112) was used for transformation. Transformants were grown and maintained at 30° C. on minimal medium containing 2% (w/v) glucose, 0.67% (w/v) Difco yeast nitrogen base without amino acids and 20 μg/ml histidine. Cytochrome P450 content and substrate binding studies were carried out spectrally using a Philips PU8800 US/Vis scanning spectrophotometer according to Omura and Sato (1964) and Jefcoate (1979) respectively. Protein content was determined by the method of Lowry et al. 1956. […] CO was bubbled into the sample cuvette and the difference spectrum was recorded between 390-500 nm. […] Nootkatone was added to the microsomal fractions in the sample cuvette but to the buffer in the reference cuvette and difference spectra recorded between 350-500 nm. […]
The ethyl acetate extracts from biotransformation studies were directly spotted on to TLC plates and developed in solvent system heptane/pyridine/ethyl acetate (100/75/1 v/v) in a chromatographic tank lined with a blotting paper the same size as the TLC plate. […] The Rf valves of spots were measured and compared to the literature. […]

[2] = target: T1, cytochrome P450 3A4; experiment: biochemical; assay type: binding
Experimental: Human cytochrome P450 3A4 was expressed using the vector pAAH5 (p3A4) in Saccharomyces cerevisiae strain AH22 (Guengerich et al., 1991). Plasmid DNA was prepared using Promega's Wizard kit and S. cerevisiae strain AH22 (a his4-519 leu2-3,2-112) was used for transformation. Transformants were grown and maintained at 30° C. on minimal medium containing 2% (w/v) glucose, 0.67% (w/v) Difco yeast nitrogen base without amino acids and 20 μg/ml histidine. Cytochrome P450 content and substrate binding studies were carried out spectrally using a Philips PU8800 US/Vis scanning spectrophotometer according to Omura and Sato (1964) and Jefcoate (1979) respectively. Protein content was determined by the method of Lowry et al. 1956. Yeast microsomal fractions used in reduced carbon monoxide difference spectra, substrate binding studies and metabolism studies were prepared as described previously (Mehmood et al., 1995). This involved mechanical breakage of the yeast cells (harvested at 5×10^7 cells/ml) using a Braun MSK homogeniser and centrifugation to pellet cells and mitochondria prior to harvesting microsomes after 1 h, 100000 g. […] CO was bubbled into the sample cuvette and the difference spectrum was recorded between 390-500 nm. […] Nootkatone was added to the microsomal fractions in the sample cuvette but to the buffer in the reference cuvette and difference spectra recorded between 350-500 nm.

[3] = test system: cytochrome P450 or related enzyme system; experiment: Inhibition of the first enzyme catalysed oxidative step (conversion of valencene to nootkatone); assay type: cell-based, both eukaryotes and prokaryotes; conditions: valencene oxidation; many organisms, eukaryotes and prokaryotes
Description: In addition to plant produced nootkatone a number of enzyme systems produced by organisms other than higher plants have the capability of converting synthetic precursors of nootkatone to nootkatone itself. Thus, for example, a variety of microorganisms can oxidise valencene to nootkatone.
Whilst investigating such transformations as effected by bacteria and fungi, it was deduced that the conversion was the result of two oxidative steps. The first was indicated to be carried out by an enzyme thought to be a cytochrome P450 or related enzyme system. The second appeared as an oxidoreductase transformation.

[4] = Toxicity of nootkatone at concentrations in grapefruit juice; conditions: at concentrations found in normal strength grapefruit juice (approximately 7 mg/200 ml)
[5] = test system: felodipine first-pass metabolism; conditions: in vivo; cited from earlier work
[6] = test system: CYP3A4; conditions: cited from earlier work
[7] = oral administration with water; cited from earlier work
[8] = racemic nitrendipine; cited from earlier work

T1 sequence (P08684 whole entry): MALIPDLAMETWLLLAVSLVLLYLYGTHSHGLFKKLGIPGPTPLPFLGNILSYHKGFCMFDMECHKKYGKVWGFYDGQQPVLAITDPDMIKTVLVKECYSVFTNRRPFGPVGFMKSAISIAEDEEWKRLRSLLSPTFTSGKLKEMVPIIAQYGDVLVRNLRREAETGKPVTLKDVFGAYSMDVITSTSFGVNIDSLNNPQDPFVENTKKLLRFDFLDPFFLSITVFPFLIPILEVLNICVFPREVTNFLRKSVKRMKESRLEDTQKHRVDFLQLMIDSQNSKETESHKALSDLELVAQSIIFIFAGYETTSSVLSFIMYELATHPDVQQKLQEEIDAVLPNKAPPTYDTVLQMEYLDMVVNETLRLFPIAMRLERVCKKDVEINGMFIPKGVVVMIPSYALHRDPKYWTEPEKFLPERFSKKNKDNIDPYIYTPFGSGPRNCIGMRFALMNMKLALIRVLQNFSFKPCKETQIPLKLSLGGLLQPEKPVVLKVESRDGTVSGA

C=C(C)[C@@H]1CCC2=CC(=O)C[C@@H](C)[C@]2(C)C1 [nootkatone]
IC50 [1]: < 140 µM | Kd [2]: 80 to 100 µM | inhibition of the first enzyme catalysed oxidative step [3]: acts as an inhibitor of the first enzyme catalysed oxidative step | toxicity [4]: does not appear to be toxic

C=C(C)C1CCC2=CC(O)CC(C)C2(C)C1 (stereo not shown) [nootkatol]
inhibitory effect compared with nootkatone ([1]; similar experiments to nootkatone): less marked inhibitory effect

C[C@@H]1O[C@@H](O[C@H]2[C@H](Oc3cc(O)c4c(c3)O[C@H](c3ccc(O)cc3)CC4=O)O[C@H](CO)[C@@H](O)[C@@H]2O)[C@H](O)[C@H](O)[C@H]1O [naringin]
interaction with felodipine compared with grapefruit juice [5]: less interaction

CC(=O)N1CCN(c2ccc(OCC3COC(Cn4ccnc4)(c4ccc(Cl)cc4Cl)O3)cc2)CC1 (stereo not shown) [ketoconazole]
inhibition of CYP3A4 [6]: known to inhibit CYP3A4

CCOC(=O)C1=C(C)NC(C)=C(C(=O)OC)C1c1cccc(Cl)c1Cl (stereo not shown) [felodipine]
average bioavailability [7]: 15%

CCOC(=O)C1=C(C)NC(C)=C(C(=O)OC)C1c1cccc([N+](=O)[O-])c1 (racemic) [nitrendipine]
gastrointestinal absorption [8]: almost complete | systemic bioavailability [8]: 5% to 30

— patent US6054490A, “Use of sesquiterpenes for inhibiting oxidative enzymes” (Zylepsis Limited, priority 1995, dated 2000)
